Results from article PMC6271731, “Multitarget Molecular Hybrids of Cinnamic Acids” (Molecules, 2014).

Tested on: esterase
Experiment: In vitro esterase activity on hybrids
Assay type: in vitro ADME
Settings: 1 mM, phosphate buffer pH 7.8, 37 °C, 90 min and 24 h
Procedure: Representative hybrid molecules are subjected to an esterase activity in vitro. 100 μL of 1 mg/mL 0.001 N hydrochloric acid of esterase solution was added to 1,250 μL of phosphate buffer (0.1 M) pH 7.8 including the tested compounds (150 μL in DMSO, final concentration 1 mM) and incubated at 37 °C for 90 min. The incubated solution was allowed to set at room temperature. Then, the absorption was measured at 256 nm. The measurement was repeated after 24 h of incubation at 37 °C.

With `CC(=O)Nc1ccc(OC(=O)/C=C/c2cccc(Oc3ccccc3)c2)cc1` [Compound 2a, (E)-4-Acetamidophenyl 3-(3-phenoxyphenyl)acrylate] as the compound, how does the “hydrolysis of the ester group by esterase” value read?
Its value is “hydrolyzed”.
